Some test systems named below: BT-549 breast; CAKI-1 renal; M14 melanoma; MCF7 breast; MOLT-4 leukemia; NCI-H226 lung; PC-3 prostate; RPMI-8226 leukemia; SF-295 CNS; TK-10 renal.
Assay in all cases: inhibition of tumour cell growth, NCI panel, 48 h

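Test compounds were applied to cells in 96-well plates for 48 hours at 5 doses. GI50 = concentration required for 50% inhibition of growth. TGI: total growth inhibition.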 Where only a bound is given, the exact number is not on record here.

Consider `O=C1CC[C@H](N2C(=O)c3cccc4c(Cc5ccc(CN6CCOCC6)cc5)ccc2c34)C(=O)N1`, for which the GI50 in the experiment on BT-549 breast was 17.3 µM; in the experiment on CAKI-1 renal, 62.1 µM; with M14 melanoma, 62 µM; in the experiment on MCF7 breast it was 23.7 µM; in the experiment on MOLT-4 leukemia it was 27.6 µM; in the experiment on NCI-H226 lung, 11.7 µM. The GI50 was 40.4 µM in the experiment with PC-3 prostate, 9.18 µM in the experiment with RPMI-8226 leukemia, 19.3 µM in the experiment with SF-295 CNS and over 100 µM with TK-10 renal. Further, the TGI in the experiment on BT-549 breast, with CAKI-1 renal, in the experiment on M14 melanoma, in the experiment with MCF7 breast, in the experiment on MOLT-4 leukemia and with NCI-H226 lung was over 100 µM throughout. In addition, the TGI in the experiment on PC-3 prostate, with RPMI-8226 leukemia, in the experiment with SF-295 CNS and in the experiment with TK-10 renal was over 100 µM in each case.
For the molecule `CC12OOC(c3ccccc31)c1c2ccc2ccccc12` (stereo not given), the TGI is 22.3 µM with BT-549 breast; 4.64 µM in the experiment on CAKI-1 renal; 22.6 µM in the experiment on M14 melanoma; 32.4 µM in the experiment with MCF7 breast; 3.42 µM in the experiment on MOLT-4 leukemia; 39.3 µM in the experiment on NCI-H226 lung. Besides, the TGI was determined as 18.8 µM in the experiment with PC-3 prostate, 6.24 µM in the experiment on RPMI-8226 leukemia, 14.3 µM in the experiment with SF-295 CNS and 22.3 µM in the experiment on TK-10 renal.
Turning to `NS(=O)(=O)OCC1OC(n2cnc3cncnc32)C(O)C1O` (stereo not given), the GI50 in the experiment with BT-549 breast was 0.0275 µM; in the experiment with CAKI-1 renal, 0.0181 µM; in the experiment with M14 melanoma it was 0.03 µM; in the experiment on MCF7 breast, 0.0185 µM; in the experiment with MOLT-4 leukemia, 0.0209 µM; in the experiment with NCI-H226 lung, 0.0344 µM. Further, the GI50 with PC-3 prostate is 0.0312 µM; in the experiment on RPMI-8226 leukemia, 0.0333 µM; with SF-295 CNS, 0.0279 µM; in the experiment on TK-10 renal it was 0.0214 µM. Besides, the TGI in the experiment with BT-549 breast is 0.0913 µM; with CAKI-1 renal, 0.0463 µM; in the experiment with M14 melanoma it was 0.0944 µM; in the experiment on MCF7 breast it was 0.0806 µM; with MOLT-4 leukemia it was 2.42 µM; in the experiment on NCI-H226 lung, 0.222 µM. The TGI stood at 0.237 µM in the experiment on PC-3 prostate, 0.147 µM with RPMI-8226 leukemia, 0.12 µM in the experiment on SF-295 CNS and 0.0713 µM with TK-10 renal.
With `Cc1cc(=O)[nH]c(N/N=C/c2cc(Br)ccc2O)n1`, the GI50 was 11 µM in the experiment with BT-549 breast; 1.44 µM with CAKI-1 renal; 0.53 µM in the experiment on M14 melanoma; 0.318 µM with MCF7 breast; 0.432 µM in the experiment on MOLT-4 leukemia; 2.1 µM with NCI-H226 lung. In addition, the GI50 was 0.698 µM in the experiment with PC-3 prostate, 0.843 µM with RPMI-8226 leukemia, 0.193 µM with SF-295 CNS and 21.5 µM in the experiment on TK-10 renal. For the same molecule, the TGI with BT-549 breast was over 100 µM; in the experiment on CAKI-1 renal, 4.89 µM; in the experiment on M14 melanoma, over 100 µM; in the experiment on MCF7 breast it was 16.6 µM; in the experiment on MOLT-4 leukemia, 15.5 µM; in the experiment with NCI-H226 lung, over 100 µM. The TGI in the experiment with PC-3 prostate was over 100 µM; in the experiment with RPMI-8226 leukemia it was over 100 µM; in the experiment on SF-295 CNS, 0.568 µM; with TK-10 renal, over 100 µM.
Take `Cc1ccc(NC(=O)c2ccc(CN3CCN(C)CC3)cc2)cc1Nc1nccc(-c2cccnc2)n1`: the GI50 with BT-549 breast is 16.6 µM; in the experiment with CAKI-1 renal it was 30.3 µM; with M14 melanoma, 19.1 µM; in the experiment on MCF7 breast it was 17.8 µM; in the experiment on MOLT-4 leukemia, 5.11 µM; in the experiment with NCI-H226 lung it was 19.6 µM. The GI50 in the experiment with PC-3 prostate is 21.5 µM; in the experiment on RPMI-8226 leukemia, 7.56 µM; with SF-295 CNS, 17.8 µM; in the experiment with TK-10 renal it was 28.1 µM. Further, the TGI amounted to 34.9 µM in the experiment on BT-549 breast; 67 µM in the experiment with CAKI-1 renal; 35.7 µM in the experiment on M14 melanoma; 44.8 µM in the experiment on MCF7 breast; 41.4 µM with MOLT-4 leukemia; 49.9 µM with NCI-H226 lung. In addition, the TGI was 71.6 µM in the experiment with PC-3 prostate, 28.1 µM in the experiment with RPMI-8226 leukemia, 38.3 µM with SF-295 CNS and 70.6 µM with TK-10 renal.
With `CC1(C)N=C(N)N=C(N)N1c1ccc(CCCCc2ccccc2)c(Cl)c1`, the GI50 is 0.161 µM in the experiment with BT-549 breast; 0.869 µM in the experiment with CAKI-1 renal; 0.0598 µM with M14 melanoma; 0.0256 µM with MCF7 breast; 0.095 µM in the experiment on MOLT-4 leukemia; 0.275 µM with NCI-H226 lung. The GI50 is under 0.0172 µM in the experiment on PC-3 prostate, 0.127 µM in the experiment with RPMI-8226 leukemia, 0.0457 µM in the experiment on SF-295 CNS and 0.0721 µM with TK-10 renal. Further, the TGI in the experiment with BT-549 breast is 5.19 µM; in the experiment with CAKI-1 renal it was 16.8 µM; in the experiment on M14 melanoma, 8.77 µM; with MCF7 breast, 2.12 µM; in the experiment with MOLT-4 leukemia, 11.3 µM; with NCI-H226 lung, 24.4 µM. Moreover, the TGI in the experiment on PC-3 prostate came to 6.88 µM; in the experiment on RPMI-8226 leukemia, 11.6 µM; in the experiment with SF-295 CNS it was 14.6 µM; in the experiment on TK-10 renal, 17.5 µM.
Consider `CC(C)N1CC2CN(Cc3ccccc3)CC(C1)C2=O`, for which the TGI with BT-549 breast, in the experiment on CAKI-1 renal, in the experiment with M14 melanoma, with MCF7 breast, with MOLT-4 leukemia and in the experiment with NCI-H226 lung was over 100 µM throughout. The TGI with PC-3 prostate, in the experiment with RPMI-8226 leukemia, in the experiment with SF-295 CNS and in the experiment with TK-10 renal was over 100 µM in each case.
As to `COc1ccc(C(=O)Nc2ncc(Cc3cccc(Cl)c3)s2)cc1OC`, the GI50 in the experiment with BT-549 breast is 0.883 µM; in the experiment on CAKI-1 renal it was 0.309 µM; with M14 melanoma it was 0.0371 µM; in the experiment with MCF7 breast, 0.36 µM; with MOLT-4 leukemia it was 0.374 µM; in the experiment on NCI-H226 lung, 1.48 µM. For the same molecule, the GI50 is 1.5 µM in the experiment on PC-3 prostate, 0.474 µM with RPMI-8226 leukemia, 0.0607 µM in the experiment on SF-295 CNS and 7.85 µM in the experiment with TK-10 renal. The TGI in the experiment with BT-549 breast, in the experiment on CAKI-1 renal, in the experiment with M14 melanoma, with MCF7 breast, in the experiment with MOLT-4 leukemia and with NCI-H226 lung was over 100 µM throughout. For the same molecule, the TGI was over 100 µM with PC-3 prostate, 8.23 µM in the experiment on RPMI-8226 leukemia, 3.64 µM in the experiment with SF-295 CNS and over 100 µM in the experiment on TK-10 renal.

Values taken from PubChem BioAssay (NCI).
